Assay results from ChEMBL document CHEMBL1201862, “PubChem BioAssay data set” (2004).
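Compound exposure: 48 hours, 5 concentrations, 96-well plates. The concentration for 50% growth inhibition is given as GI50.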 The source made the active and inactive calls. No stated cut-off is given here; in the data, active = GI50 up to about 1.1 µM and inactive = higher.

Experiments:
Assay in all cases: NCI tumour cell line growth inhibition, 48 h
SNB-78 = tested on: SNB-78
HOP-62 = tested on: HOP-62
UO-31 = tested on: UO-31
K562 = tested on: K562
SF-539 = tested on: SF-539
SR = tested on: SR
SW-620 = tested on: SW-620
CCRF-CEM = tested on: CCRF-CEM
Malme-3M = tested on: Malme-3M
HT-29 = tested on: HT-29
M14 = tested on: M14
IGROV-1 = tested on: IGROV-1
HOP-92 = tested on: HOP-92
A498 = tested on: A498
SK-MEL-2 = tested on: SK-MEL-2
NCI-H226 = tested on: NCI-H226

Measured: GI50

CC(C)=CC(=O)Oc1ccc([N+](=O)[O-])cc1
inactive: SNB-78 > 100 µM | HOP-62 > 100 µM | UO-31 > 100 µM | K562 > 100 µM | SF-539 > 100 µM | SR > 100 µM | SW-620 > 100 µM | CCRF-CEM > 100 µM | Malme-3M > 100 µM | HT-29 > 100 µM | M14 > 100 µM | IGROV-1 > 100 µM | HOP-92 > 100 µM | A498 > 100 µM | SK-MEL-2 > 100 µM | NCI-H226 > 100 µM

O=C1CCCc2ccc([N+](=O)[O-])c(O)c21
inactive: SNB-78 > 100 µM | HOP-62 > 100 µM | UO-31 34.8 µM | K562 > 100 µM | SF-539 > 100 µM | SR 85.7 µM | SW-620 > 100 µM | CCRF-CEM > 100 µM | Malme-3M 34.4 µM | HT-29 > 100 µM | M14 > 100 µM | IGROV-1 82.6 µM | HOP-92 68.1 µM | A498 50.7 µM | SK-MEL-2 39 µM | NCI-H226 40.8 µM

N#C/C(=C/c1ccc([N+](=O)[O-])o1)c1ccccc1
inactive: SNB-78 > 100 µM | HOP-62 > 100 µM | UO-31 > 100 µM | K562 > 100 µM | SF-539 > 100 µM | SR > 100 µM | SW-620 > 100 µM | CCRF-CEM > 100 µM | Malme-3M > 100 µM | HT-29 > 100 µM | M14 > 100 µM | HOP-92 > 100 µM | SK-MEL-2 > 100 µM | NCI-H226 > 100 µM

COc1ccc(C=O)c(N(C)C(=O)C(C)(C)C)c1
inactive: SNB-78 > 100 µM | HOP-62 > 100 µM | UO-31 > 100 µM | K562 > 100 µM | SF-539 > 100 µM | SW-620 > 100 µM | CCRF-CEM > 100 µM | Malme-3M > 100 µM | HT-29 > 100 µM | M14 > 100 µM | IGROV-1 > 100 µM | HOP-92 > 100 µM | A498 > 100 µM | SK-MEL-2 > 100 µM | NCI-H226 > 100 µM

S=P(c1ccccc1)(c1ccccc1)C1(C2(P(=S)(c3ccccc3)c3ccccc3)CC2)CC1
inactive: SNB-78 > 100 µM | HOP-62 > 100 µM | UO-31 > 100 µM | K562 > 100 µM | SF-539 > 100 µM | SR > 100 µM | SW-620 > 100 µM | CCRF-CEM > 100 µM | HT-29 > 100 µM | M14 > 100 µM | IGROV-1 > 100 µM | SK-MEL-2 > 100 µM | NCI-H226 > 100 µM

C/C(CC(=O)Nc1cccc(C)c1C)=N\NC(N)=S
inactive: SNB-78 > 100 µM | HOP-62 > 100 µM | UO-31 > 100 µM | K562 > 100 µM | SF-539 > 100 µM | SR 26.2 µM | CCRF-CEM 74.3 µM | Malme-3M > 100 µM | HT-29 > 100 µM | M14 > 100 µM | IGROV-1 > 100 µM | HOP-92 > 100 µM | A498 > 100 µM | SK-MEL-2 > 100 µM | NCI-H226 > 100 µM

O=C(CSc1nc(-c2ccccc2)c(-c2ccccc2)[nH]1)N/N=C/c1ccc(O)cc1
inactive: SNB-78 37.9 µM | HOP-62 19.3 µM | UO-31 28.1 µM | K562 23.6 µM | SF-539 19.1 µM | SR 16.4 µM | SW-620 30.8 µM | CCRF-CEM 23.3 µM | Malme-3M 21.4 µM | HT-29 18.9 µM | M14 19 µM | IGROV-1 26.4 µM | HOP-92 22.8 µM | SK-MEL-2 24.5 µM | NCI-H226 31.3 µM
